Measurements from patent US9260448B2, “Thienopyrimidinone derivatives as mGluR1 antagonists” (KOREA INSTITUTE OF SCIENCE AND TECHNOLOGY, priority 2013, dated 2016).

These molecules were tested against mGluR1 (Homo sapiens, UniProt Q13255) (assay: mGluR1 activity screening using FDSS6000 (intracellular calcium, L-Glutamate stimulation)). Details: Chem3 Cell Line (HTS145C:Millipore) stably expressing mGluR1, L-Glutamate 30 μM, Ca2+ fluorescent dye, read-out: IC50 (nM) against mGluR1.
Format: cell-based
Method: mGluR1 Activity Screening Method Using FDSS6000
Cells of Chem3 Cell Line (HTS145C:Millipore) in which mGluR1 was stably expressed were adjusted to a density of 2×10^6/ml. 50 μl of the cells were plated in each well of a 96-well plate, and stabilized at 5% CO2 and 37° C. for 1 hr. The cells were allowed to react with an HBSS buffer containing a Ca^2+ fluorescent dye (FLIPR Calcium 5 assay kit: Molecular Devices) under the conditions of 5% CO2 and 37° C. for 30 min. As a result of the reaction, the cells were labeled with the fluorescent dye. Separately from the 96-well plate containing the fluorescently labeled cells, another 96-well plate was prepared that contained L-Glutamate (final concentration=30 μM) activating mGluR1 and a blocking drug to be screened. Most cell-based HTS systems have liquid application systems necessary for drug injection but no liquid inhalation systems. For this reason, 25 μl of each of the blocking drug and L-Glutamate was prepared at a 6-fold higher concentration in an HBSS buffer and diluted 6-fold in the final volume […] of the cell plate before measurement. Specifically, after drug pretreatment for 75 sec following recording the reference value at 20 sec, a change in intracellular calcium concentration caused by L-glutamate administration was measured using FDSS6000. The inhibitory effect of the test substance was expressed as a percent (%) relative to the area of the 480 nm/520 nm ratio in a control group untreated with the test substance. 10 μM PCTC20001 was always used as the control drug.
For detailed imaging of calcium, the cells were selectively exposed to an excitation wavelength (480 nm) from four xenon light sources mounted in FDSS6000 through a computer-controlled filter wheel. Data were recorded at 1.23-sec intervals. Emitter fluorescence light entering through a 520 nm long-pass filter was allowed to pass through a cooled CCD camera mounted in the system. An average 480 nm/520 nm ratio was obtained in each well of the 96-well plate using a digital fluorescence analyzer. All imaging data were collected and analyzed with the help of a dedicated program for FDSS6000 (Hamamatsu Photonics).
Measurement of IC50 Values Against mGluR1
The IC50 values (nM) of the novel compounds of Formula 1 according to the present invention against mGluR1 are shown in Table 1.

Sequence of mGluR1 (Q13255 19-1194): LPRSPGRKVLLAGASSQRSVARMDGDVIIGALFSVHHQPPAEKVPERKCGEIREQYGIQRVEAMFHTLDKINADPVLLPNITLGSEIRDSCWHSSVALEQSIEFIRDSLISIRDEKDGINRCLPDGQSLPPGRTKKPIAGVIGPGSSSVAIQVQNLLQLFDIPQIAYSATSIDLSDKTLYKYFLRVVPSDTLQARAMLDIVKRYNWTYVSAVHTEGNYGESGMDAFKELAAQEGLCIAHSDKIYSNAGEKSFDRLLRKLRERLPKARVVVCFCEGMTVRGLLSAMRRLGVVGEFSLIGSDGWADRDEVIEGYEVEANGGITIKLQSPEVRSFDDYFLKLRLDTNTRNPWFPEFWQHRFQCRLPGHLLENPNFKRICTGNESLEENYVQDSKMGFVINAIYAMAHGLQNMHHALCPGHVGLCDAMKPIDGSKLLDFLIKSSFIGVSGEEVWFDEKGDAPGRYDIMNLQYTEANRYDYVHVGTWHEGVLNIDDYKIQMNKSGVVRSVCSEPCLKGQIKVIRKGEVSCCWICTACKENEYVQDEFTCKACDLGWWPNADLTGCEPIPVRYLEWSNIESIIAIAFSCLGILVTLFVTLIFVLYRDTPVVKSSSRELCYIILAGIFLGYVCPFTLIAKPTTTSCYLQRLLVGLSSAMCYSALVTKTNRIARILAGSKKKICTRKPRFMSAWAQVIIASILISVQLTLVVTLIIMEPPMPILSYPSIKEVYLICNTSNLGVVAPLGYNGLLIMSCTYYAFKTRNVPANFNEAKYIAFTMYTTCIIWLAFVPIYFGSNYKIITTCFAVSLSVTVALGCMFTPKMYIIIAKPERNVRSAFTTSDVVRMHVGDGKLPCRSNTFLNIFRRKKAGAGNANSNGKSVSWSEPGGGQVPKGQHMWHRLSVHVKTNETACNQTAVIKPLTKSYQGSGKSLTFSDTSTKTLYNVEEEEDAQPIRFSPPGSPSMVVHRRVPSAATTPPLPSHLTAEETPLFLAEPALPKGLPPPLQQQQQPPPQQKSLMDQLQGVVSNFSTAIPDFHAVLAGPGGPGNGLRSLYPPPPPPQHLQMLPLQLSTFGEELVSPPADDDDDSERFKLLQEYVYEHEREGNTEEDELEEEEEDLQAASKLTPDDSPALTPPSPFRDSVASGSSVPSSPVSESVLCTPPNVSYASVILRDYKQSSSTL

| IC50 [nM] | SMILES |
| --- | --- |
| 407 | O=c1c2scc(-c3ccccc3)c2ncn1-c1ccccc1F [Compound 2, 3-(2-Fluorophenyl)-7-phenylthieno[3,2-d]pyrimidin-4(3H)-one] |
| 58 | O=c1c2scc(-c3ccccc3)c2ncn1-c1cccc(Cl)c1 [Compound 6, 3-(3-Chlorophenyl)-7-phenylthieno[3,2-d]pyrimidin-4(3H)-one] |
| 66 | O=c1c2scc(-c3ccccc3)c2ncn1-c1ccc(Cl)cc1 [Compound 7, 3-(4-Chlorophenyl)-7-phenylthieno[3,2-d]pyrimidin-4(3H)-one] |
| 112 | Cc1ccc(-n2cnc3c(-c4ccccc4)csc3c2=O)cc1 [Compound 18, 7-Phenyl-3-p-tolylthieno[3,2-d]pyrimidin-4(3H)-one] |
| 74 | C=Cc1cccc(-n2cnc3c(-c4ccccc4)csc3c2=O)c1 [Compound 29, 7-Phenyl-3-(3-vinylphenyl)thieno[3,2-d]-pyrimidin-4(3H)-one] |
| 30 | O=c1c2scc(-c3ccccc3F)c2ncn1-c1ccc(Cl)cc1 [Compound 32, 3-(4-Chlorophenyl)-7-(2-fluorophenyl)thieno[3,2-d]pyrimidin-4(3H)-one] |
| 80 | Cc1ccc(-c2csc3c(=O)n(-c4ccc(Cl)cc4)cnc23)cc1 [Compound 58, 3-(4-Chlorophenyl)-7-(p-tolyl)thieno[3,2-d]pyrimidin-4(3H)-one] |
| 661 | COc1ccc(-n2cnc3c(-c4ccc(C)cc4)csc3c2=O)cc1 [Compound 59, 3-(4-Methoxyphenyl)-7-(p-tolyl)thieno[3,2-d]pyrimidin-4(3H)-one] |
| 447 | O=c1c2scc(-c3ccc4c(c3)OCO4)c2ncn1-c1ccc(Cl)cc1 [Compound 68, 7-(Benzo[d][1,3]dioxol-5-yl)-3-(4-chlorophenyl)thieno[3,2-d]pyrimidin-4(3H)-one] |
| 1990 | COc1ccc(-n2cnc3c(-c4ccc5c(c4)OCO5)csc3c2=O)cc1 [Compound 69, 7-(Benzo[d][1,3]dioxol-5-yl)-3-(4-methoxyphenyl)thieno[3,2-d]pyrimidin-4(3H)-one] |
| 564 | COc1ccc(-n2c(C)nc3c(-c4ccccc4)csc3c2=O)cc1 [Compound 74, 3-(4-Methoxyphenyl)-2-methyl-7-phenylthieno[3,2-d]pyrimidin-4(3H)-one] |
